Assay results: US6462086B1, “Non-malignant disease treatment with Ras antagonists” (Ramot University Authority for Applied Research and …, priority 1999, dated 2002)

How the values were obtained:
Ras [1] = test: Amount of Ras in spleen lymphocytes of FTS-treated SJL mice (Western immunoblot, pan-Ras Ab); format: in vivo, mouse; conditions: FTS 5 mg/kg/day, 48 h following treatment, densitometry
Procedure: Naive SJL mice received either the vehicle or FTS (10 mg/Kg, i.p., twice a day) for 2 days. The total amounts of Ras were then determined in cell lysates prepared as detailed in (14). Briefly, spleen lymphocytes of the control and of the FTS-treated mice were homogenized in homogenization buffer as detailed previously (14-15). Total cellular protein (50 μg) corresponding to 1.2×10^6 cells, as separated by 12.5% sodium dodecylsulfate polyacrylamide gel electrophoresis (SDS-PAGE) and blotted onto nitrocellulose membranes. hmmunoblotting with pan-Ras Ab (pan-Ras Ab-3, Calbiochem), enhanced chemiluminescense assays (ECL) and densitometric analysis were then performed as detailed previously (14-15). Lymphocytes of vehicle- and of FTS-treated (5 mg/kg/day) SJL mice were obtained from the spleens of mice, 48 h following treatment. The cells where then homogenized and the total amount of Ras was determined by Western immunobloting with pan Ras antibody (14). The apparent amount of Ras in the lymphocytes of the FTS-treated mice was lower than that of the control lymphocytes.

Ras [2] = test: Ras in membranes (P100) and cytosol (S100) of cultured spleen lymphocytes (Western immunoblot); format: cell-based, mouse; conditions: for amount of insoluble (P100) Ras: 24 h, relative to FTS 0 μM = 100
Procedure: Spleen lymphocytes, obtained from six mice as described above, were pooled and plated in 10 cm dishes containing RPMI/5% FCS at a density of 2.3×10^7 cells per plate. […] Twenty-four hours later the cells were collected (pools of 2 plates for each treatment) and washed in PBS. The cells were then homogenized in homogenization buffer containing protease inhibitors. Ras was determined in total cell membranes (P100) and cytosol (S100) obtained by centrifugation ([…], 30 min, 4° C.). Briefly, 25 μg of total cellular proteins were separated by 12.5% sodium dodecylsulfate polyacrylamide gel electrophoresis (SDS-PAGE) and blotted onto nitrocellulose membranes. Immunoblotting with pan-Ras, enhanced chemiluminescense assays (ECL) and densitometric analysis were then performed as detailed previously (14).

MRL/lpr mice = test: Open field test in MRL mice; format: in vivo, mouse; conditions: 20 minutes
Procedure: Saline-treated and FTS-treated MRL/lpr and saline-treated MRL/++ mice (n=5), were tested for spatial behavior in a novel environment in an open field. The apparatus comprised of a circular pool (120 cm diameter by 50 cm high) placed in a lighted room. The test was conducted during the light phase of day-night cycle. The mice were brought to the experimental room 1 hour before testing. Each mouse was removed gently from its cage, placed individually at the center of the field, and videotaped with a camcorder for 20 minutes. At the end of each session the pool was cleaned with paper towels moistened with ammonium glass cleaner to remove urinary trails. The frequency and duration of progression or stopping in the open field was analyzed during playback of the video records by software custom-written by Dr. David Eilam (Life Sciences Department, Tel-Aviv University). Total distance traveled, locomotion time, speed of moving, spatial distribution of explorations and latency for establishing a home base, and duration of staying there, were extracted.

[3] = Distribution of 3H-FTS in plasma and liver; format: in vivo, rat; conditions: 5 mg/Kg
Procedure: For each set of experiments, FTS was prepared in chloroform (0.1 M stock solution) and maintained at −70° C. The chloroform was removed from the stock solution by a stream of nitrogen prior to use, and FTS was then dissolved either in DMSO (in vitro experiments) or in ethanol (in vivo experiments). The FTS/DMSO solutions were diluted with DMEM/10% fetal calf serum (FCS) to yield a 100×drug stock solution containing 10% DMSO. A portion of this solution was applied to the cells at a dilution of 1:100. The FTS/ethanol solution was alkalinized by the addition of 1N NaOH, then diluted with phosphate-buffered saline (PBS) to obtain a solution of 1.0 mg FTS/ml (pH 8.0, 0.5% ethanol). This solution (1-1.5 ml per rat) was used in the in vivo experiments. In a separate set of experiments, the distribution of FTS in the plasma and in the liver was assayed by the use of 3H -FTS (12.5 ci/mmole, ARC, St. Louis Mo.). […] The estimated concentration FTS in the liver at peak times (20 to 60 min) was 29 μM. Drug levels in the liver declined thereafter to the level of 0.5 μM at 24 h.

[4] = tested on: TAA-induced liver cirrhosis in Wistar rats; test: Hepatic hydroxyproline levels in TAA-induced cirrhosis; format: in vivo, rat
Procedure: Liver cirrhosis was induced in rats by intraperitoneal (i.p.) administration of TAA 200 mg/kg twice weekly for 12 weeks, as previously described (1, 2). […] The FTS was dissolved in PBS and administered i.p. 3 times a week to rats according to their assigned groups. Four groups containing 6 rats each were treated as follows. One group received TAA 200 mg/kg i.p. twice a week and i.p. injections of PBS 3 days a week for 12 weeks (cirrhotic controls for the FTS-treated groups). A second group received TAA for 12 weeks and FTS 5 mg/kg, 3 times a week. […] The two control groups consisted of one that received PBS injections without TAA for 12 weeks (normal controls) and a group of 5 rats that received only FTS 5 mg/kg i.p. for 12 weeks to monitor the appearance of adverse effects. Quantitative determination of hepatic hydroxyproline levels was performed as previously described (2). The hydroxyproline levels were analyzed twice and separately for each liver.

With `CC(C)=CCC/C(C)=C/CC/C(C)=C/CSc1ccccc1C(=O)O` [FTS, farnesyl thiosalicylic acid] the “reduction in the amount of Ras in lymphocytes” value (Ras [1]) was 36±7%, the “amount of insoluble (P100) Ras” value (Ras [2]; FTS 12.5 μM) was 84±9.8% and the “amount of insoluble (P100) Ras” value (Ras [2]; FTS 50μM as printed) was 52±16%. The “levels of soluble (S100) Ras” value (Ras [2]; FTS 12.5 and 25 μM) was “no concomitant observable change”, the “open field: time spent in the center” value (MRL/lpr mice) was “significant effect on the time spent in the center” and the “open field: total distance covered” value (MRL/lpr mice) was “no effect on the total distance covered”. For the same molecule, the “estimated concentration of FTS in the liver at peak times” value [3] was 29 µM, the “peak liver levels, % of the injected dose” value [3] was 1.75% and the “peak plasma levels, % of the injected dose” value [3] was 10.7%. The “peak times in the liver” value [3] was 20 to 60 min, the concentration at 24 h ([3]; Wistar, rat, liver, other: injected (type of injection not given), read-out: drug level in the liver at 24 h) was 500 nM and the hepatic hydroxyproline levels ([4]; TAA plus FTS, TAA alone 7.7±0.9) was 3.8±0.5 mg/g protein. It also gave a hepatic hydroxyproline levels ([4]; control group treated with FTS only) of 1.6±0.1 mg/g protein.
